Results taken from US9278990B2, “Substituted nucleotide analogs” (priority 2010, dated 2016).

Test system: Huh-7 cells containing the self-replicating, subgenomic HCV replicon
Assay: HCV replicon assay (luciferase reporter)
Type: cell-based
Details: Hepatitis C virus, Huh-7, 72 h
Protocol: Huh-7 cells containing the self-replicating, subgenomic HCV replicon with a stable luciferase (LUC) reporter were cultured in Dulbecco's modified Eagle's medium (DMEM) containing 2 mM L-glutamine and supplemented with 10% heat-inactivated fetal bovine serum (FBS), 1% penicillin-streptomyocin, 1% nonessential amino acids, and 0.5 mg/mL G418.
On the first day, 5,000 HCV replicon cells were plated per well in a 96-well plate. On the following day, test compounds were solubilized in 100% DMSO to 100× the desired final testing concentration. Each compound was then serially diluted (1:3) up to 9 different concentrations. Compounds in 100% DMSO are reduced to 10% DMSO by diluting 1:10 in cell culture media. The compounds were diluted to 10% DMSO with cell culture media, which were used to dose the HCV replicon cells in 96-well format. The final DMSO concentration was 1%. The HCV replicon cells were incubated at 37° C. for 72 hours. At 72 hours, cells were processed when the cells are still subconfluent. Compounds that reduce the LUC signal are determined by Bright-Glo Luciferase Assay (Promega, Madison, Wis.). Percent Inhibition was determined for each compound concentration in relation to the control cells (untreated HCV replicon) to calculate the EC50.

| Structure (SMILES) | EC50 [µM] |
| --- | --- |
| COC(=O)[C@H](C)NP(=S)(OC[C@H]1O[C@@H](n2ccc(=O)[nH]c2=O)[C@](C)(O)[C@@H]1O)Oc1cccc2ccccc12 (some centres unmarked) | < 1 |
| CC(C)OC(=O)[C@H](C)NP(=S)(OC[C@H]1O[C@@H](n2ccc(=O)[nH]c2=O)[C@](C)(F)[C@@H]1O)Oc1ccccc1 (some centres unmarked) | 1 to 10 |
| CC(C)OC(=O)[C@H](C)NP(=S)(OC[C@H]1O[C@@H](n2ccc(=O)[nH]c2=O)[C@](C)(O)[C@@H]1O)Oc1ccccc1 (some centres unmarked) | < 1 |
| COc1nc(N)nc2c1ncn2[C@@H]1O[C@H](COP(=S)(N[C@@H](C)C(=O)OC(C)C)Oc2ccccc2)[C@@H](O)[C@@]1(C)F (some centres unmarked) | < 1 |
| COc1nc(N)nc2c1ncn2[C@@H]1O[C@H](COP(=S)(N[C@@H](C)C(=O)OC(C)C)Oc2ccccc2)[C@@H](O)[C@@]1(C)O (some centres unmarked) | < 1 |
| COc1nc(N)nc2c1ncn2[C@@H]1O[C@H](COP(=S)(N[C@@H](C)C(=O)OCC(C)(C)C)Oc2ccccc2)[C@@H](O)[C@@]1(C)O (some centres unmarked) | < 1 |
| COc1nc(N)nc2c1ncn2[C@@H]1O[C@H](COP(=S)(N[C@@H](C)C(=O)OC2CCCCC2)Oc2ccccc2)[C@@H](O)[C@@]1(C)O (some centres unmarked) | < 1 |
| COc1nc(N)nc2c1ncn2[C@@H]1O[C@H](COP(=S)(N[C@@H](C)C(=O)OCC(C)(C)C)Oc2cccc3ccccc23)[C@@H](O)[C@@]1(C)O (some centres unmarked) | < 1 |
| COc1nc(N)nc2c1ncn2[C@@H]1O[C@H](COP(=S)(N[C@@H](C)C(=O)OC2CCCCC2)Oc2cccc3ccccc23)[C@@H](O)[C@@]1(C)O (some centres unmarked) | < 1 |
| CC(C)OC(=O)[C@H](C)NP(=S)(OC[C@H]1O[C@@H](n2cnc3c(NC4CC4)nc(N)nc32)[C@](C)(O)[C@@H]1O)Oc1ccccc1 (some centres unmarked) | < 1 |
| CC(C)OC(=O)[C@H](C)NP(=S)(OC[C@H]1O[C@@H](n2cnc3c(N)nc(N)nc32)[C@](C)(O)[C@@H]1O)Oc1ccccc1 (some centres unmarked) | < 1 |
| C=CCNc1nc(N)nc2c1ncn2[C@@H]1O[C@H](COP(=S)(N[C@@H](C)C(=O)OC(C)C)Oc2ccccc2)[C@@H](O)[C@@]1(C)O (some centres unmarked) | < 1 |
| CC(C)OC(=O)[C@H](C)NP(=S)(OC[C@H]1O[C@@H](n2cnc3c(Cl)nc(N)nc32)[C@](C)(O)[C@@H]1O)Oc1ccccc1 (some centres unmarked) | < 1 |
| C[C@H](NP(=S)(OC[C@H]1O[C@@H](n2cnc3c(N)ncnc32)[C@](C)(O)[C@@H]1O)Oc1ccccc1)C(=O)OCC(C)(C)C (some centres unmarked) | < 1 |
| CC(C)OC(=O)[C@H](C)NP(=S)(OC[C@H]1O[C@@H](n2cnc3c(N)ncnc32)[C@](C)(O)[C@@H]1O)Oc1cccc2ccccc12 (some centres unmarked) | < 1 |
| CC(C)OC(=O)[C@H](C)NP(=S)(OC[C@@]1(N=[N+]=[N-])O[C@@H](n2ccc(=O)[nH]c2=O)[C@H](O)[C@@H]1O)Oc1ccccc1 (some centres unmarked) | 10 to 100 |

| Structure (SMILES) | EC50 [µM] |
| --- | --- |
| C[C@H](NP(=S)(OC[C@@]1(N=[N+]=[N-])O[C@@H](n2ccc(=O)[nH]c2=O)[C@H](O)[C@@H]1O)Oc1ccccc1)C(=O)OCC(C)(C)C (some centres unmarked) | 10 to 100 |
| CC(C)OC(=O)[C@H](C)NP(=S)(OC[C@H]1O[C@@H](n2ccc(=O)[nH]c2=O)[C@](C)(O)[C@@H]1O)Oc1ccc(F)cc1 (some centres unmarked) | < 1 |
| CC(C)OC(=O)[C@H](C)NP(=S)(OC[C@H]1O[C@@H](n2ccc(=O)[nH]c2=O)[C@](C)(O)[C@@H]1O)Oc1ccc(Cl)cc1 (some centres unmarked) | < 1 |
| CC(C)OC(=O)[C@H](C)NP(=S)(OC[C@H]1O[C@@H](n2ccc(=O)[nH]c2=O)[C@](C)(O)[C@@H]1O)Oc1ccccc1Cl (some centres unmarked) | < 1 |
| CC(C)OC(=O)[C@H](C)NP(=S)(OC[C@H]1O[C@@H](n2ccc(=O)[nH]c2=O)[C@](C)(O)[C@@H]1O)Oc1ccc(F)c(Cl)c1 (some centres unmarked) | < 1 |
| Cc1ccc(OP(=S)(N[C@@H](C)C(=O)OC(C)C)OC[C@H]2O[C@@H](n3ccc(=O)[nH]c3=O)[C@](C)(O)[C@@H]2O)cc1 (some centres unmarked) | < 1 |
| Cc1ccccc1OP(=S)(N[C@@H](C)C(=O)OC(C)C)OC[C@H]1O[C@@H](n2ccc(=O)[nH]c2=O)[C@](C)(O)[C@@H]1O (some centres unmarked) | < 1 |
| COc1ccc(OP(=S)(N[C@@H](C)C(=O)OC(C)C)OC[C@H]2O[C@@H](n3ccc(=O)[nH]c3=O)[C@](C)(O)[C@@H]2O)cc1 (some centres unmarked) | < 1 |
| CC(C)OC(=O)[C@H](C)NP(=S)(OC[C@H]1O[C@@H](n2ccc(=O)[nH]c2=O)[C@](C)(O)[C@@H]1O)Oc1cccc2ncccc12 (some centres unmarked) | < 1 |
| CC(C)OC(=O)[C@H](C)NP(=S)(OC[C@H]1O[C@@H](n2ccc(=O)[nH]c2=O)[C@](C)(O)[C@@H]1O)Oc1cccnc1 (some centres unmarked) | < 1 |
| CSCC[C@H](NP(=S)(OC[C@H]1O[C@@H](n2ccc(=O)[nH]c2=O)[C@](C)(O)[C@@H]1O)Oc1ccccc1)C(=O)OC(C)C (some centres unmarked) | 1 to 10 |
| CC(C)OC(=O)CNP(=S)(OC[C@H]1O[C@@H](n2ccc(=O)[nH]c2=O)[C@](C)(O)[C@@H]1O)Oc1ccccc1 (some centres unmarked) | 1 to 10 |
| CC[C@H](NP(=S)(OC[C@H]1O[C@@H](n2ccc(=O)[nH]c2=O)[C@](C)(O)[C@@H]1O)Oc1ccccc1)C(=O)OC(C)C (some centres unmarked) | < 1 |
| CCC[C@H](NP(=S)(OC[C@H]1O[C@@H](n2ccc(=O)[nH]c2=O)[C@](C)(O)[C@@H]1O)Oc1ccccc1)C(=O)OC(C)C (some centres unmarked) | < 1 |
| CC(C)OC(=O)[C@H](Cc1ccccc1)NP(=S)(OC[C@H]1O[C@@H](n2ccc(=O)[nH]c2=O)[C@](C)(O)[C@@H]1O)Oc1ccccc1 (some centres unmarked) | 1 to 10 |
| CC(C)OC(=O)C(C)NP(=S)(OC[C@H]1O[C@@H](n2cnc3c(=O)[nH]c(N)nc32)C(C)(O)C1O)Oc1ccccc1 (some centres unmarked) | < 1 |

Test system: HCV genotype 1b HCV replicon harbored in Huh7 cells
Assay: Combination testing in HCV replicon (CalcuSyn CI and MacSynergy II synergy volume)
Type: cell-based
Details: combination of compound 3b with the listed combination compound; MacSynergy II (Bliss independence); 72 h; 25-100 synergistic, >100 strongly synergistic
Protocol: Two or more test compounds were tested in combination with each other using an HCV genotype 1b HCV replicon harbored in Huh7 cells with a stable luciferase (LUC) reporter. Cells were cultured under standard conditions in Dulbecco's modified Eagle's medium (DMEM; Mediatech Inc, Herndon, Va.) containing 10% heat-inactivated fetal bovine serum (FBS; Mediatech Inc, Herndon, Va.) 2 mM L-glutamine, and nonessential amino acids (JRH Biosciences). HCV replicon cells were plated in a 96-well plate at a density of 10^4 cells per well in DMEM with 10% FBS. […] The cells were incubated with no compound as a control, with the test compounds, or the combination of compounds for 72 h. The direct effects of the combination of the test compounds were examined using a luciferase (LUC) based reporter as determined by the Bright-Glo Luciferase Assay (Promega, Madison, Wis.). Dose-response curves were determined for individual compounds and fixed ratio combinations of two or more test compounds.
The effects of test compound combinations were evaluated by two separate methods. In the Loewe additivity model, the experimental replicon data was analyzed by using CalcuSyn (Biosoft, Ferguson, Mo.), a computer program based on the method of Chou and Talalay. The program uses the experimental data to calculate a combination index (CI) value for each experimental combination tested. A CI value of <1 indicates a synergistic effect, a CI value of 1 indicates an additive effect, and a CI value of >1 indicates an antagonistic effect.
The second method utilized for evaluating combination effects used a program called MacSynergy II. MacSynergy II software was kindly provided by Dr. M. Prichard (University of Michigan). The Prichard Model allows for a three-dimensional examination of drug interactions and a calculation of the synergy volume (units: μM^2 %) generated from running the replicon assay using a checkerboard combination of two or more inhibitors. The volumes of synergy (positive volumes) or antagonism (negative volumes) represent the relative quantity of synergism or antagonism per change in the concentrations of the two drugs. Synergy and antagonism volumes are defined based on the Bliss independence model. In this model, synergy volumes of less than −25 indicate antagonistic interactions, volumes in the −25-25 range indicate additive behavior, volumes in the 25-100 range indicate synergistic behavior and volumes >100 indicate strong synergistic behavior.

| Structure (SMILES) | Synergy Volume [μM^2%] |
| --- | --- |
| COc1ccc2c(O[C@@H]3C[C@H]4C(=O)N[C@]5(C(=O)O)C[C@H]5/C=C\CCCCC[C@H](NC(=O)OC5CCCC5)C(=O)N4C3)cc(-c3csc(NC(C)C)n3)nc2c1 [BILN-2061] | 31 |
| COC(=O)N[C@H](C(=O)N1CCC[C@H]1c1nc(-c2ccc(-c3ccc(-c4c[nH]c([C@@H]5CCCN5C(=O)[C@@H](NC(=O)OC)C(C)C)n4)cc3)cc2)c[nH]1)C(C)C [BMS-790052] | 26 |
| CCc1cc(CC[C@]2(C3CCCC3)CC(O)=C(Cc3nc4nc(C)cc(C)n4n3)C(=O)O2)cc(CC)n1 [Filibuvir] | 23 |
| Fc1ccccc1-c1nc2ccn(Cc3ccc(-c4ccc(C(F)(F)F)cc4C(F)(F)F)nn3)cc-2n1 [GS-9190] | 79 |
| CNC(=O)c1c(-c2ccc(F)cc2)oc2cc(N(CCO)S(C)(=O)=O)c(C3CC3)cc12 [HCV-796] | 31 |
| COc1nc(N)nc2c1ncn2[C@@H]1O[C@H](COP(=O)(N[C@@H](C)C(=O)OCC(C)(C)C)Oc2cccc3ccccc23)[C@@H](O)[C@@]1(C)O (some centres unmarked) [INX-189] | 65 |
| CC(C)(C)OC(=O)N[C@H]1CCCCC/C=C\[C@@H]2C[C@@]2(C(=O)NS(=O)(=O)C2CC2)NC(=O)[C@@H]2C[C@@H](OC(=O)N3Cc4cccc(F)c4C3)CN2C1=O [ITMN-191] | 126 |
| CCOc1nc(N)nc2c1ncn2[C@@H]1O[C@@H]2COP(=O)(OC(C)C)O[C@H]2[C@@]1(C)F (some centres unmarked) [PSI-938] | 27 |
| C[C@@]1(F)[C@H](O)[C@@H](CO)O[C@H]1n1ccc(N)nc1=O [PSI-6130] | 15 |
| CC(C)OC(=O)[C@H](C)NP(=O)(OC[C@H]1O[C@@H](n2ccc(=O)[nH]c2=O)[C@](C)(F)[C@@H]1O)Oc1ccccc1 (some centres unmarked) [PSI-7851] | 0 |
| NC(=O)c1ncn([C@@H]2O[C@H](CO)[C@@H](O)[C@H]2O)n1 [Ribavirin, ribavirin] | 22 |
| COc1ccc2c(O[C@@H]3C[C@H]4C(=O)N[C@]5(C(=O)NS(=O)(=O)C6CC6)C[C@H]5/C=C\CCCCN(C)C(=O)[C@@H]4C3)cc(-c3nc(C(C)C)cs3)nc2c1C [TMC-435] | 126 |
